The values that follow come from ChEMBL document CHEMBL3044976, “Screening and evaluation of rat kidney aldose reductase inhibitory activity of some pyridazine derivatives” (Med Chem Res, 2006).

The target of the experiment is Aldo-keto reductase family 1 member B1 (Rattus norvegicus) (UniProt P07943). Nature of the experiment: Inhibition of Rattus norvegicus albino (rat) kidney aldose reductase using DL-glyceraldehyde as substrate assessed as decrease in NADPH concentRattus norvegicus (rat) ion at 10^-4 M after 5 min by spectrophotometrically.

`Cc1cc(C)n(-c2ccc(=O)n(CC(=O)NCCc3ccccc3)n2)n1`: the inhibition worked out at 0%.
Then `Cc1nn(-c2ccc(=O)n(CC(=O)Nc3ccc(Cl)cc3)n2)c(C)c1Cl`, with 0%.
Under `Cc1nn(-c2ccc(=O)n(CC(=O)NCCc3ccccc3)n2)c(C)c1Cl` stands 0%.
Then `Cc1nn(-c2ccc(=O)n(CC(=O)N3CCCCC3)n2)c(C)c1Cl`, with 0%; and `Cc1nn(-c2ccc(=O)n(CC(=O)O)n2)c(C)c1Cl`, with 0.98%.
With `Cc1cc(-c2ccccc2)nn1-c1ccc(=O)n(CC(=O)N2CCN(c3ccccc3F)CC2)n1`, the inhibition is 1.85%.
Under `Cc1nn(-c2ccc(=O)n(CC(=O)Nc3ccc(F)cc3)n2)c(C)c1Cl` stands 0%; under `Cc1cc(-c2ccccc2)nn1-c1ccc(=O)n(CC(=O)NCCc2ccccc2)n1`, 0%.
In the case of `Cc1cc(-c2ccccc2)nn1-c1ccc(=O)n(CC(=O)Nc2cccnc2)n1`, the inhibition turned out to be 3.37%.
Then `Cc1cc(-c2ccccc2)nn1-c1ccc(=O)n(CC(=O)N2CCN(c3ccc(F)cc3)CC2)n1`, with 0%.
Take `O=C(CCc1cc(-c2ccc(Cl)cc2)n(-c2ccc(Cl)nn2)n1)N1CCCCC1`: the inhibition was 0%.
Then `CCOC(=O)Cn1nc(-n2nc(-c3ccccc3)cc2C)ccc1=O`, with 0%.
Under `O=C(O)CCc1cc(-c2ccc(Cl)cc2)n(-c2ccc(Cl)nn2)n1` stands 0.76%; under `Cc1cc(C)n(-c2ccc(=O)n(CC(=O)N3CCN(c4ccccc4F)CC3)n2)n1`, 0%.
Under `CCOC(=O)Cn1nc(-n2nc(C)c(Cl)c2C)ccc1=O` stands 0%; under `Cc1cc(C)n(-c2ccc(=O)n(CC(=O)N3CCN(c4ccc(F)cc4)CC3)n2)n1`, 1.85%.
As to `Cc1cc(-c2ccccc2)nn1-c1ccc(=O)n(CC(=O)Nc2ccc(Cl)cc2)n1`, the inhibition was 0%.
Under `Cc1cc(C)n(-c2ccc(=O)n(CC(=O)O)n2)n1` stands 7.73%.
Then `Cc1cc(C)n(-c2ccc(=O)n(CC(=O)Nc3cccnc3)n2)n1`, with 0%; and `O=C(CCc1cc(-c2ccc(Cl)cc2)n(-c2ccc(Cl)nn2)n1)NCCc1ccccc1`, with 0%; and `Cc1cc(-c2ccccc2)nn1-c1ccc(=O)n(CC(=O)O)n1`, with 0.76%.
Then `Cc1cc(C)n(-c2ccc(=O)n(CC(=O)Nc3ccc(Cl)cc3)n2)n1`, with 0%.
Consider `CCOC(=O)Cn1nc(-n2nc(C)cc2C)ccc1=O`, for which the inhibition stood at 0%.
Then `O=C(CCc1cc(-c2ccc(Cl)cc2)n(-c2ccc(Cl)nn2)n1)Nc1ccc(Cl)cc1`, with 0%.

What is called inhibition is the share of the control response that was lost under treatment.
